From PMC5218480 (PLoS ONE, 2017) come the findings set out here.

The subject of the experiment is MV-4-11 cells. Briefly: Gene expression microarray analysis (Affymetrix PrimeView) and GSEA. The experiment is classed as cell-based, human. Set-up: RFU PODN (11730768_x_at) / Fold change /veh PODN (11730768_x_at) / RFU LINC00158 (11744669_a_at) / Fold change /veh LINC00158 (11744669_a_at) / RFU DUSP10 (11751237_a_at) / Fold change /veh DUSP10 (11751237_a_at) / RFU ID3 (11757404_x_at) / Fold change /veh ID3 (11757404_x_at) / RFU PLEKHG5 (11737974_s_at) / Fold change /veh PLEKHG5 (11737974_s_at) / RFU LRRC4B (11730491_at) / Fold change /veh LRRC4B (11730491_at) / RFU GIMAP4 (11747438_a_at) / Fold change /veh GIMAP4 (11747438_a_at) / RFU KRT8 (11758183_x_at) / Fold change /veh KRT8 (11758183_x_at) / RFU CNN1 (11734310_a_at) / Fold change /veh CNN1 (11734310_a_at) / RFU VPS37D (11726825_at) / Fold change /veh VPS37D (11726825_at) / RFU C10orf10 (11716522_x_at) / Fold change /veh C10orf10 (11716522_x_at) / RFU KIR2DL2 /// KIR2DL4 /// KIR2DL5A /// KIR2DL5B /// KIR2DS1 /// KIR2DS2 /// KIR2DS3 /// KIR2DS4 /// KIR3DL3 /// KIR3DL3 /// KIR3DS1 (11738374_at) / Fold change /veh KIR2DL2 /// KIR2DL4 /// KIR2DL5A /// KIR2DL5B /// KIR2DS1 /// KIR2DS2 /// KIR2DS3 /// KIR2DS4 /// KIR3DL3 /// KIR3DL3 /// KIR3DS1 (11738374_at) / RFU C1QL1 (11718748_at) / Fold change /veh C1QL1 (11718748_at) / RFU TMPRSS4 (11747572_a_at) / Fold change /veh TMPRSS4 (11747572_a_at) / RFU HAMP (11756126_x_at) / Fold change /veh HAMP (11756126_x_at) / RFU RNFT2 (11725882_a_at) / Fold change /veh RNFT2 (11725882_a_at) / RFU NR4A2 (11747474_a_at) / Fold change /veh NR4A2 (11747474_a_at) / RFU ABCC12 (11746883_a_at) / Fold change /veh ABCC12 (11746883_a_at) / RFU TMEM136 (11760407_x_at) / Fold change /veh TMEM136 (11760407_x_at) / RFU CLDN22 /// WWC2 (11732394_at) / Fold change /veh CLDN22 /// WWC2 (11732394_at) / RFU HLA-DPB1 (11760878_x_at) / Fold change /veh HLA-DPB1 (11760878_x_at) / RFU SPINT1 (11716480_a_at) / Fold change /veh SPINT1 (11716480_a_at) / RFU GAP43 (11754022_s_at) / Fold change /veh GAP43 (11754022_s_at) / RFU A4GNT (11735810_at) / Fold change /veh A4GNT (11735810_at) / RFU PRB3 (11715151_x_at) / Fold change /veh PRB3 (11715151_x_at) / RFU TUBB4B (11761932_at) / Fold change /veh TUBB4B (11761932_at) / RFU CAPN14 (11732068_a_at) / Fold change /veh CAPN14 (11732068_a_at) / RFU TMCC2 (11721928_a_at) / Fold change /veh TMCC2 (11721928_a_at) / RFU IRGQ (11745062_a_at) / Fold change /veh IRGQ (11745062_a_at) / RFU FAM174B (11720279_a_at) / Fold change /veh FAM174B (11720279_a_at) / RFU TMPRSS4 (11748680_a_at) / Fold change /veh TMPRSS4 (11748680_a_at) / RFU FAM212B (11763350_a_at) / Fold change /veh FAM212B (11763350_a_at) / RFU PLEKHG5 (11743358_a_at) / Fold change /veh PLEKHG5 (11743358_a_at) / RFU ZSCAN30 (11745921_a_at) / Fold change /veh ZSCAN30 (11745921_a_at) / RFU CMKLR1 (11741424_a_at) / Fold change /veh CMKLR1 (11741424_a_at) / RFU LOC101060620 /// MAPK8IP1 (11723275_at) / Fold change /veh LOC101060620 /// MAPK8IP1 (11723275_at) / RFU SPTSSB (11747773_x_at) / Fold change /veh SPTSSB (11747773_x_at) / RFU PRSS12 (11739890_at) / Fold change /veh PRSS12 (11739890_at) / RFU BIN1 (11741810_x_at) / Fold change /veh BIN1 (11741810_x_at) / RFU WNT11 (11732464_a_at) / Fold change /veh WNT11 (11732464_a_at) / RFU C10orf10 (11716521_a_at) / Fold change /veh C10orf10 (11716521_a_at) / RFU C5orf56 (11738089_at) / Fold change /veh C5orf56 (11738089_at) / RFU CYB561 (11721691_x_at) / Fold change /veh CYB561 (11721691_x_at) / RFU ANKRD19P (11752326_a_at) / Fold change /veh ANKRD19P (11752326_a_at) / RFU OR2T12 /// OR2T33 /// OR2T8 (11738714_s_at) / Fold change /veh OR2T12 /// OR2T33 /// OR2T8 (11738714_s_at) / RFU VCAN (11748164_a_at) / Fold change /veh VCAN (11748164_a_at) / RFU JSRP1 (11732532_at) / Fold change /veh JSRP1 (11732532_at) / RFU KRTAP10-11 (11738290_x_at) / Fold change /veh KRTAP10-11 (11738290_x_at) / RFU MYO3A (11730013_a_at) / Fold change /veh MYO3A (11730013_a_at) / RFU EBF3 (11725865_a_at) / Fold change /veh EBF3 (11725865_a_at) / RFU CAMK2N1 (11719241_x_at) / Fold change /veh CAMK2N1 (11719241_x_at) / RFU C5orf56 (11738088_a_at) / Fold change /veh C5orf56 (11738088_a_at) / RFU OLFML3 (11715873_a_at) / Fold change /veh OLFML3 (11715873_a_at) / RFU LOC100653217 /// NTM (11731650_a_at) / Fold change /veh LOC100653217 /// NTM (11731650_a_at) / RFU MAPK11 (11762145_a_at) / Fold change /veh MAPK11 (11762145_a_at) / RFU FIZ1 (11724087_x_at) / Fold change /veh FIZ1 (11724087_x_at) / RFU OASL (11726364_x_at) / Fold change /veh OASL (11726364_x_at) / RFU SOX15 (11748057_x_at) / Fold change /veh SOX15 (11748057_x_at) / RFU CD79A (11719716_a_at) / Fold change /veh CD79A (11719716_a_at) / RFU HIST1H1D (11736915_at) / Fold change /veh HIST1H1D (11736915_at) / RFU CASKIN2 (11723855_a_at) / Fold change /veh CASKIN2 (11723855_a_at) / RFU LOC730098 (11760151_x_at) / Fold change /veh LOC730098 (11760151_x_at) / RFU OR4N2 (11742367_at) / Fold change /veh OR4N2 (11742367_at) / RFU PRRT2 (11749266_a_at) / Fold change /veh PRRT2 (11749266_a_at) / RFU SNX32 (11753110_a_at) / Fold change /veh SNX32 (11753110_a_at) / RFU CDHR5 (11726645_a_at) / Fold change /veh CDHR5 (11726645_a_at) / RFU RCAN1 (11760418_a_at) / Fold change /veh RCAN1 (11760418_a_at) / RFU FAM167A (11723789_a_at) / Fold change /veh FAM167A (11723789_a_at) / RFU FAM26E (11764081_at) / Fold change /veh FAM26E (11764081_at) / RFU ISYNA1 (11749810_s_at) / Fold change /veh ISYNA1 (11749810_s_at) / RFU ACY1 (11761880_at) / Fold change /veh ACY1 (11761880_at) / RFU 11764098_at / Fold change /veh 11764098_at / RFU SAMD14 (11745864_x_at) / Fold change /veh SAMD14 (11745864_x_at) / RFU NPB (11741838_a_at) / Fold change /veh NPB (11741838_a_at) / RFU TMPRSS6 (11731388_a_at) / Fold change /veh TMPRSS6 (11731388_a_at) / RFU KRTAP10-2 (11738614_at) / Fold change /veh KRTAP10-2 (11738614_at) / RFU ARHGAP8 /// PRR5-ARHGAP8 (11727945_x_at) / Fold change /veh ARHGAP8 /// PRR5-ARHGAP8 (11727945_x_at) / RFU KRTAP5-7 /// NADSYN1 (11734609_at) / Fold change /veh KRTAP5-7 /// NADSYN1 (11734609_at) / RFU RASL12 (11751679_a_at) / Fold change /veh RASL12 (11751679_a_at) / RFU CDKN2B (11736163_a_at) / Fold change /veh CDKN2B (11736163_a_at) / RFU PRF1 (11729649_at) / Fold change /veh PRF1 (11729649_at) / RFU, ZNF638 /// ZNF638-IT1 / Fold change vs veh, ZNF638 /// ZNF638-IT1 / RFU, PANK3 / Fold change vs veh, PANK3 / RFU, SH3YL1 / Fold change vs veh, SH3YL1 / RFU, ZEB2 / Fold change vs veh, ZEB2 / RFU, NRIP1 / Fold change vs veh, NRIP1 / RFU, PTTG1IP / Fold change vs veh, PTTG1IP / RFU, CAPN2 / Fold change vs veh, CAPN2 / RFU, MED14 / Fold change vs veh, MED14 / RFU, SNORA58 / Fold change vs veh, SNORA58 / RFU, C1orf63 / Fold change vs veh, C1orf63 / RFU, LRRFIP1 / Fold change vs veh, LRRFIP1 / RFU, NDUFAF7 / Fold change vs veh, NDUFAF7 / RFU, SLC12A2 / Fold change vs veh, SLC12A2 / RFU, IBTK / Fold change vs veh, IBTK / RFU, ESF1 / Fold change vs veh, ESF1 / Fold change vs veh, TMEM50B / RFU, TAOK1 / Fold change vs veh, TAOK1 / RFU, ACBD3 / Fold change vs veh, ACBD3 / RFU, TMA16 / Fold change vs veh, TMA16 / RFU, RWDD3 / Fold change vs veh, RWDD3 / RFU, BCAT1 / Fold change vs veh, BCAT1 / RFU, EDEM3 / Fold change vs veh, EDEM3 / RFU, TMEM33 / Fold change vs veh, TMEM33 / RFU, WDR75 / Fold change vs veh, WDR75 / RFU, AHCTF1 / Fold change vs veh, AHCTF1 / RFU, TFRC / Fold change vs veh, TFRC / RFU, ZDHHC17 / Fold change vs veh, ZDHHC17 / RFU, NOM1 / Fold change vs veh, NOM1 / RFU, ARL8B / Fold change vs veh, ARL8B / RFU, ZBTB11 / Fold change vs veh, ZBTB11 / RFU, TAMM41 / Fold change vs veh, TAMM41 / RFU, KIAA1704 /// LOC100996395 / Fold change vs veh, KIAA1704 /// LOC100996395 / RFU, ING1 / Fold change vs veh, ING1 / RFU, TRMT61B / Fold change vs veh, TRMT61B / RFU, FUBP3 / Fold change vs veh, FUBP3 / RFU, TP53 / Fold change vs veh, TP53 / RFU, TNKS2 / Fold change vs veh, TNKS2 / RFU, ZFP14 / Fold change vs veh, ZFP14 / RFU, ACTR2 / Fold change vs veh, ACTR2 / RFU, PPP3R1 / Fold change vs veh, PPP3R1 / RFU, PIK3R1 / Fold change vs veh, PIK3R1 / RFU, HNRNPA1 / Fold change vs veh, HNRNPA1 / RFU, RNF170 / Fold change vs veh, RNF170 / RFU, ZNF28 / Fold change vs veh, ZNF28 / RFU, RNGTT / Fold change vs veh, RNGTT / RFU, OGT / Fold change vs veh, OGT / RFU, BRD1 / Fold change vs veh, BRD1 / RFU, MARS / Fold change vs veh, MARS / RFU, ZNF655 / Fold change vs veh, ZNF655 / RFU, FAHD1 / Fold change vs veh, FAHD1 / RFU, BDP1 / Fold change vs veh, BDP1 / RFU, LRRCC1 / Fold change vs veh, LRRCC1 / RFU, ARID1A / Fold change vs veh, ARID1A / RFU, ZNF146 / Fold change vs veh, ZNF146 / RFU, ZNF330 / Fold change vs veh, ZNF330 / RFU, GPN3 / Fold change vs veh, GPN3 / RFU, C9orf123 / Fold change vs veh, C9orf123 / RFU, N4BP2L2 / Fold change vs veh, N4BP2L2 / RFU, ARFIP1 / Fold change vs veh, ARFIP1 / RFU, FAM179B / Fold change vs veh, FAM179B / RFU, BCL10 / Fold change vs veh, BCL10 / RFU, UHRF1BP1L / Fold change vs veh, UHRF1BP1L / RFU, BET1 / Fold change vs veh, BET1 / RFU, CNOT2 / Fold change vs veh, CNOT2 / RFU, ZNF268 / Fold change vs veh, ZNF268 / Fold change vs veh, ZNF507 / RFU, DGCR2 / Fold change vs veh, DGCR2 / RFU, WDSUB1 / Fold change vs veh, WDSUB1 / Fold change vs veh, HSP90B1 /// MIR3652 / RFU, ADSS / Fold change vs veh, ADSS / RFU, GK / Fold change vs veh, GK / RFU, ZNF148 / Fold change vs veh, ZNF148 / RFU, TAF9 / Fold change vs veh, TAF9 / RFU, SLC1A5 / Fold change vs veh, SLC1A5 / RFU, SLMO2 / Fold change vs veh, SLMO2 / RFU, ABCC4 / Fold change vs veh, ABCC4 / RFU, LOC101060439 /// RAP1B / Fold change vs veh, LOC101060439 /// RAP1B / RFU, RFX7 / Fold change vs veh, RFX7 / RFU, GTPBP10 / Fold change vs veh, GTPBP10 / RFU, CNEP1R1 / Fold change vs veh, CNEP1R1 / RFU, BIVM-ERCC5 /// ERCC5 / Fold change vs veh, BIVM-ERCC5 /// ERCC5 / RFU, ILF3 / Fold change vs veh, ILF3 / RFU 11762660_at / Fold change /veh 11762660_at / RFU VCAN (11757783_s_at) / Fold change /veh VCAN (11757783_s_at) / RFU DDX43 (11728927_at) / Fold change /veh DDX43 (11728927_at) / RFU KRT8 (11758188_x_at) / Fold change /veh KRT8 (11758188_x_at) / RFU NKD1 (11759106_at) / Fold change /veh NKD1 (11759106_at) / RFU SRD5A1 (11742802_a_at) / Fold change /veh SRD5A1 (11742802_a_at) / RFU TPSAB1 /// TPSB2 (11721975_s_at) / Fold change /veh TPSAB1 /// TPSB2 (11721975_s_at) / RFU GSTM3 (11746129_a_at) / Fold change /veh GSTM3 (11746129_a_at) / RFU IL23R (11737362_x_at) / Fold change /veh IL23R (11737362_x_at) / RFU TMEM51 (11727254_a_at) / Fold change /veh TMEM51 (11727254_a_at) / RFU PIWIL2 (11732686_x_at) / Fold change /veh PIWIL2 (11732686_x_at) / RFU ORM1 (11744905_x_at) / Fold change /veh ORM1 (11744905_x_at) / RFU CCDC152 (11743942_at) / Fold change /veh CCDC152 (11743942_at) / RFU ECM1 (11717891_a_at) / Fold change /veh ECM1 (11717891_a_at) / RFU IL23R (11748794_a_at) / Fold change /veh IL23R (11748794_a_at) / RFU TNFAIP8L3 (11732012_x_at) / Fold change /veh TNFAIP8L3 (11732012_x_at) / RFU MBOAT4 (11741988_at) / Fold change /veh MBOAT4 (11741988_at) / RFU 11764193_at / Fold change /veh 11764193_at / RFU TMEM53 (11763286_at) / Fold change /veh TMEM53 (11763286_at) / RFU MAGEB2 (11727129_at) / Fold change /veh MAGEB2 (11727129_at) / RFU TMEM200A (11744735_a_at) / Fold change /veh TMEM200A (11744735_a_at) / RFU CCDC152 (11751479_a_at) / Fold change /veh CCDC152 (11751479_a_at) / RFU FAM211A (11726209_a_at) / Fold change /veh FAM211A (11726209_a_at) / RFU RGS16 (11746705_a_at) / Fold change /veh RGS16 (11746705_a_at) / RFU VCAN (11755009_s_at) / Fold change /veh VCAN (11755009_s_at) / RFU RHOB (11743442_s_at) / Fold change /veh RHOB (11743442_s_at) / RFU RGS16 (11720943_a_at) / Fold change /veh RGS16 (11720943_a_at) / RFU RGS16 (11720944_at) / Fold change /veh RGS16 (11720944_at) / RFU, VPS4B / Fold change vs veh, VPS4B / RFU, CREB1 / Fold change vs veh, CREB1 / RFU, DNAJC13 / Fold change vs veh, DNAJC13 / RFU, GNAQ / Fold change vs veh, GNAQ / RFU, CDK5R1 / Fold change vs veh, CDK5R1 / RFU, ZRANB3 / Fold change vs veh, ZRANB3 / RFU, CUL4A / Fold change vs veh, CUL4A / RFU, CCNY / Fold change vs veh, CCNY / RFU, UFL1 / Fold change vs veh, UFL1 / RFU, COG3 / Fold change vs veh, COG3 / RFU, DIAPH2 / Fold change vs veh, DIAPH2 / RFU, SKA2 / Fold change vs veh, SKA2 / RFU, AFF3 / Fold change vs veh, AFF3 / RFU, LMF1 / Fold change vs veh, LMF1 / RFU, IPO11 / Fold change vs veh, IPO11 / RFU, DFFB / Fold change vs veh, DFFB / RFU, FOXP1 / Fold change vs veh, FOXP1 / RFU, CARD8 / Fold change vs veh, CARD8 / RFU, STRN3 / Fold change vs veh, STRN3 / RFU, ADK / Fold change vs veh, ADK / RFU, RASSF2 / Fold change vs veh, RASSF2 / RFU, WIPF1 / Fold change vs veh, WIPF1 / RFU, LARP1B / Fold change vs veh, LARP1B / RFU, RASA1 / Fold change vs veh, RASA1 / RFU, RB1 / Fold change vs veh, RB1 / RFU, PPFIA1 / Fold change vs veh, PPFIA1 / RFU, MAT2A / Fold change vs veh, MAT2A / RFU, CCT5 / Fold change vs veh, CCT5 / RFU, WDR92 / Fold change vs veh, WDR92 / RFU, CUX1 / Fold change vs veh, CUX1 / RFU, TTC7A / Fold change vs veh, TTC7A / RFU, TMEM135 / Fold change vs veh, TMEM135 / RFU, DEPTOR / Fold change vs veh, DEPTOR / RFU, CPM / Fold change vs veh, CPM / RFU, DNAJB6 / Fold change vs veh, DNAJB6 / RFU, CACNA2D3 / Fold change vs veh, CACNA2D3 / RFU, DTX4 / Fold change vs veh, DTX4 / RFU, TFCP2 / Fold change vs veh, TFCP2 / RFU, GMCL1 /// GMCL1P1 / Fold change vs veh, GMCL1 /// GMCL1P1 / RFU, AEBP2 / Fold change vs veh, AEBP2 / RFU, SNHG1 /// SNORD22 /// SNORD25 /// SNORD26 /// SNORD27 /// SNORD28 /// SNORD29 /// SNORD31 / Fold change vs veh, SNHG1 /// SNORD22 /// SNORD25 /// SNORD26 /// SNORD27 /// SNORD28 /// SNORD29 /// SNORD31 / Fold change (Aza/veh), C12orf56 (ProbeSet 11735607_a_at) / Fold change (ACY-1035/veh), C12orf56 (ProbeSet 11735607_a_at) / Fold change (Aza/veh), FGFR1OP (ProbeSet 11751329_s_at) / Fold change (ACY-1035/veh), FGFR1OP (ProbeSet 11751329_s_at) / Fold change (Aza/veh), VPS36 (ProbeSet 11739960_a_at) / Fold change (ACY-1035/veh), VPS36 (ProbeSet 11739960_a_at) / RFU SYPL1 (11715823_x_at) / Fold change /veh SYPL1 (11715823_x_at) / RFU IGFBP7 (11715501_s_at) / Fold change /veh IGFBP7 (11715501_s_at) / RFU REEP3 (11722064_at) / Fold change /veh REEP3 (11722064_at) / RFU IGLL1 (11728026_x_at) / Fold change /veh IGLL1 (11728026_x_at): dose or concentration left out as unconfirmed. To be noted: MV-4-11 cells, 48 hours.

Turning to `Nc1ccc(-c2cccs2)cc1NC(=O)c1ccc2c(c1)cc(C1CC1)n2CCN1CCOCC1` [ACY-1035], the “Fold change /veh ABCC12 (11746883_a_at)” value came to 1.17.
